Measurements reported in patent publication US20120323022A1, “(2'S)-COLUMBIANETIN ISOLATED FROM CORYDALIS HETEROCARPA AND COMPOSITION CONTAINING THE SAME” (priority 2011, published 2012).

Legend:
Format in all cases: cell-based, Human
TIMP-1 = assay: RT-PCR and Western blot, TIMP-1 expression in UVB-exposed cells; details: HaCaT, UVB 40 mJ/cm^2, FIG. 5
Procedure: (§1) Human keratinocyte (HaCaT, Korean Cell Line Bank, Seoul, Korea) cells were grown in Dulbecco's modified Eagle medium (DMEM, Gibco-BRL, Gaithersbrug, Md., USA) containing 10% fetal bovine serum (FBS), 2 mM glutamine and 100 μg/mL penicillin-streptomycin (Gibco-BRL, Gaithersbrug, Md., USA) at 37° C. humidified atmosphere of 5% CO2. Cells were sub-cultured to about 90-95% confluence by detaching with trypsin-EDTA solution.
(§2) Total cellular RNA was isolated using Trizol reagent (Invitrogen Co., CA, USA). The 2 μg of isolated RNA was reverse transcribed into cDNA using oligo-(dT) primer (Promega, Madison, Wis., USA). […] Finally, the relative band densities were determined using a LAS3000® Luminescent image analyzer (Fujifilm Life Science, Tokyo, Japan).
(§3) Whole cells were lysed in RIPA buffer (Sigma-Aldrich Corp., St. Louis, USA) at 4° C. for 30 min. After centrifugation, total protein amount of cell lysates were determined using Lowry method (BioRad Laboratories, Hercules, Calif.). […] Bound antibodies were detected by horseradish peroxidase-conjugated secondary antibodies for 1 h at room temperature and the immunoreactive proteins were detected using a chemiluminescent ECL assay kit (Amersham Pharmacia Biosciences, England, UK) according to the manufacturer's instructions. […]

HaCaT cells [1] = assay: Microscopic image of morphological changes in UVB-exposed cells; details: UVB 40 mJ/cm^2, microscopic image, FIG. 2C
Procedure: as §1
To determine the appropriate energy level of UVB irradiation, the cytotoxicity of keratinocytes cultured from the above was determined by comparing the data obtained from MTT and LDH leakage for 6, 12, 24 and 48 h after UVB irradiation from 10 to 3000 mJ/cm^2. Exposure of cells to UVB energy induced significant decrease of cell viability (FIG. 1A) and increase of LDH release in a UVB exposure-dependent manner (FIG. 1B). Morphological changes in keratinocyte cells for different incubation periods (6, 12, 24 and 48 h) after UVB exposure of cells in a range of 10-3000 mJ/cm^2 were compared (FIG. 1C). A larger proportion of cells were swelling and dying in a dose- and time-dependent manner.
(§4) Based on the above results, effects of (2′S)-columbianetin on the viability and injury degree of UVB-exposed keratinocyte cells were examined at incubation for 24 h after UVB exposure of 40 mJ/cm^2.

p53 = assay: Western blot, phosphorylated p53 in UVB-exposed cells; details: UVB-exposed HaCaT cells, FIG. 7B
Procedure: as §1, §3

[2] = system: c-Jun N-terminal kinase (JNK); assay: Western blot, phosphorylated JNK in UVB-exposed cells; details: UVB-exposed HaCaT cells, FIG. 6
Procedure: as §1, §3

[3] = system: genomic DNA of keratinocyte cells; assay: Genomic DNA extraction and DNA oxidation, agarose gel; details: UVB-stimulated cells, FIG. 4
Procedure: as §1
Genomic DNA was isolated from keratinocyte cells using standard phenol/proteinase K procedure with slight modifications (J. Sambrook, D. W. Russell, Molecular Cloning: A Laboratory Manual; 3rd ed. Cold Spring Harbor Laboratory Press: Cold Spring Harbor. 2001). In brief, UVB-stimulated cells in the presence and absence of sample were washed twice with PBS and collected using 1 mL of PBS containing 10 mM EDTA. After centrifugation at 13,400×g for 5 min at 4° C., the deposited cells were resuspended in 410 μL of solution including RNase A (0.5 mg/mL), proteinase K (10 mg/mL), SDS (10%) and NaOAC (0.2 M). After that, this mixture was incubated at 37° C. for 30 min and 55° C. for 1 h. Following incubation, phenol:chloroform:iso-amylalcohol (25:24:1) was added at 1:1 ratio, after which the mixture was centrifuged at 13,400×g for 5 min at 4° C. […] Purity of DNA was determined by ratio of absorbance at 260 and 280 nm using spectrophotometric assay. […]

[4] = system: extracellular signal-related kinase (ERK1/2); assay: Western blot, phosphorylated ERK1/2 in UVB-exposed cells; details: UVB-exposed HaCaT cells, FIG. 6
Procedure: as §1, §3

intracellular ROS = assay: Intracellular ROS generation (DCFH-DA) in UVB-exposed cells; details: UVB 40 mJ/cm^2, treated 24 h, FIG. 3
Procedure: as §1
The levels of intracellular ROS generation were detected using the oxidation sensitive dye 2′,7′-dichlorofluorescin diacetate (DCFH-DA). The cells were grown in a 96-well microplate with fluorescence for 24 h and followed by exposure to UVB (40 mJ/cm^2). The exposed cells were treated with (2′S)-columbianetin for 24 h and then they were loaded with 20 μM of DCFH-DA in PBS and incubated for 30 min in the dark at 37° C. under a humidified atmosphere with 5% CO2. Finally, cells were washed twice with PBS and the fluorescence of DCF in PBS was detected at an excitation wavelength of 485 nm and an emission wavelength of 535 nm using a fluorescence microplate reader (Tacan Austria GmbH, Salzburg, Austria) and the result is shown in FIG. 3.

HaCaT cells [5] = assay: LDH release assay, cell injury of UVB-exposed cells; details: UVB 40 mJ/cm^2, incubation 24 h, FIG. 2B
Procedure: as §1
Cell injury was measured by quantifying the amount of lactate dehydrogenase (LDH)-release using a commercial LDH cytotoxicity detection kit (TaKaRa Biomedicals, Tokyo, Japan). Cells were exposed according to the experiment design. The conditioned medium of the UVB-exposed cells was collected for LDH measurement. The substrate mix solution was added to aliquots of the supernatant medium at 1:1 ratio and incubated at 37° C. for 30 min under light protected conditions. Then, the absorbance was determined at 490 nm immediately after the addition of 1N HCl stop solution (final concentration, 0.2 N) using a microplate reader (Tacan Austria GmbH, Salzburg, Austria). Control was prepared with 0.1% (w/v) Triton X-100, which was defined as 100% LDH release.
as §4

c-fos = assay: Western blot, AP-1 activation (c-fos) in UVB-exposed cells; details: UVB-exposed HaCaT cells, FIG. 7A
Procedure: as §1, §3

p38 MAPK = assay: Western blot, phosphorylated p38 MAPK in UVB-exposed cells; details: UVB-exposed HaCaT cells, FIG. 6
Procedure: as §1, §3

HaCaT cells [6] = assay: MTT assay, viability of UVB-exposed keratinocyte cells; details: UVB 40 mJ/cm^2, incubation 24 h, compared with only UVB-exposed cells, FIG. 2A
Procedure: as §1
The viability levels of keratinocyte cells were determined by the ability of mitochondria to convert 3-(4,5-dimethylthiazol-2-yl)-2,5-diphenyl tetrazolium bromide (MTT) to insoluble formazan product. Briefly, cells were grown in 96-well plates at a density of 1×10^4 cells/well. After incubation for 24 h, the cells were stimulated by UVB irradiation (40 mJ/cm^2) and incubated for 24 h in the absence or presence of (2′S)-columbianetin at 37° C. under a humidified atmosphere of 5% CO2. The supernatant medium was removed and 100 μL of 1 mg/mL MTT reagent was added to each well, followed by incubation for 4 h. After removal of unconverted MTT, the amount of formazan in the cells was determined by adding DMSO (dimethyl sulfoxide) to wells and measuring optical density (OD) at 540 nm using a microplate reader (Tacan Austria GmbH, Salzburg, Austria). Relative cell viability was calculated as the percentage of viability of untreated cells that were considered the control. […]

MMP-9 (gelatinase B) = assay: RT-PCR and Western blot, MMP-9 expression in UVB-exposed cells; details: HaCaT, UVB 40 mJ/cm^2, RT-PCR and Western blot, FIG. 5
Procedure: as §1, §2, §3

MMP-2 (gelatinase A) = assay: RT-PCR and Western blot, MMP-2 expression in UVB-exposed cells; details: HaCaT, UVB 40 mJ/cm^2, RT-PCR and Western blot, FIG. 5
Procedure: as §1, §2, §3

Bax = assay: Western blot, Bax in UVB-exposed cells; details: UVB-exposed HaCaT cells, FIG. 7B
Procedure: as §1, §3

TIMP-2 = assay: RT-PCR and Western blot, TIMP-2 expression in UVB-exposed cells; details: HaCaT, UVB 40 mJ/cm^2, FIG. 5
Procedure: as §1, §2, §3

CC(C)(O)C1Cc2c(ccc3ccc(=O)oc23)O1 (stereo not drawn) [(2′S)-columbianetin]
TIMP-1 expression (TIMP-1): dose-dependently enhanced | morphological changes in cells due to UV (HaCaT cells [1]): effectively suppressed the morphological changes in cells | expression level of phosphorylated p53 (p53): the increments were suppressed | expression of phosphorylated JNK protein [2]: effectively decreased the regulations | protective effect on DNA damage due to UVB exposure [3]: adequate protective effect on DNA damage | expression of phosphorylated ERK1/2 protein [4]: effectively decreased the regulations | DCF fluorescence intensity (intracellular ROS) (intracellular ROS): significantly reduced DCF fluorescence intensity in a dose-dependent manner | degree of cell injury (LDH release) (HaCaT cells [5]): substantially decreased the degree of cell injury by UVB exposure in a dose-dependent manner | activated nuclear transcription factor c-fos (c-fos): significantly down-regulated | expression of phosphorylated p38 MAPK protein (p38 MAPK): effectively decreased the regulations | cell viability (MTT) (HaCaT cells [6]): substantially increased cell viability in a dose-dependent manner | expression level of UVB-mediated gelatinase B (MMP-9) gene and protein (MMP-9 (gelatinase B)): reduced by (2′S)-columbianetin in a dose-dependent manner | expression level of UVB-mediated gelatinase A (MMP-2) gene and protein (MMP-2 (gelatinase A)): reduced by (2′S)-columbianetin in a dose-dependent manner | expression level of Bax protein (Bax): the increments were suppressed | TIMP-2 expression (TIMP-2): dose-dependently enhanced
